Laboratory results published in ChEMBL document CHEMBL3407356, “Design, synthesis, biological evaluation and molecular modeling of dihydropyrazole sulfonamide derivatives as potential COX-1/COX-2 inhibitors” (Bioorg Med Chem Lett, 2015).

Experiments:
[1] = Antiproliferative activity against mouse B16F10 cells after 24 hrs by MTT assay; assay type: functional, cell-based; conditions: B16-F10, 24 h
MCF7 = experiment: Antiproliferative activity against human MCF7 cells after 24 hrs by MTT assay; assay type: functional, cell-based; conditions: MCF7, 24 h
HeLa = experiment: Antiproliferative activity against human HeLa cells after 24 hrs by MTT assay; assay type: functional, cell-based
[2] = target: Prostaglandin G/H synthase 1 (Homo sapiens, UniProt P23219); experiment: Inhibition of human recombinant COX1 by ELISA
[3] = target: T1, Prostaglandin G/H synthase 2 (Homo sapiens, UniProt P35354); experiment: Inhibition of human recombinant COX2 by ELISA
T1 sequence (P35354 whole entry): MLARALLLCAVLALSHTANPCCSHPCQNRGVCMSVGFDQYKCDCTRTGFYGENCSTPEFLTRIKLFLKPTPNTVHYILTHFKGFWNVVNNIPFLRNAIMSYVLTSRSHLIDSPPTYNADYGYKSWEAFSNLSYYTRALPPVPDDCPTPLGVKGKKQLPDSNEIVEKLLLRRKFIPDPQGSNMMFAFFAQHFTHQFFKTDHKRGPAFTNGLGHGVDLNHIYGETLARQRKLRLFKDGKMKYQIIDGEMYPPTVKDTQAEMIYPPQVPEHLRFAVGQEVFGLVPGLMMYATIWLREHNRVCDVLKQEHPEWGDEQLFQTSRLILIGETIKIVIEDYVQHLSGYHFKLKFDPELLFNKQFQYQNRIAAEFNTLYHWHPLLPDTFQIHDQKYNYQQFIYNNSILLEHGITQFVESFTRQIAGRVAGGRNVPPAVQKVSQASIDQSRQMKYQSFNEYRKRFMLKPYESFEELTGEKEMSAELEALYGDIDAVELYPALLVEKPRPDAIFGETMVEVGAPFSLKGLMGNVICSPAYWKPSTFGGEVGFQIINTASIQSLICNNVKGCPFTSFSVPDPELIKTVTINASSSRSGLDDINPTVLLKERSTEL

[4] = Cytotoxicity against human 293T cells after 24 hrs by MTT assay; assay type: cell-based; conditions: HEK-293T cells

Sequence of Prostaglandin G/H synthase 1 (P23219 whole entry): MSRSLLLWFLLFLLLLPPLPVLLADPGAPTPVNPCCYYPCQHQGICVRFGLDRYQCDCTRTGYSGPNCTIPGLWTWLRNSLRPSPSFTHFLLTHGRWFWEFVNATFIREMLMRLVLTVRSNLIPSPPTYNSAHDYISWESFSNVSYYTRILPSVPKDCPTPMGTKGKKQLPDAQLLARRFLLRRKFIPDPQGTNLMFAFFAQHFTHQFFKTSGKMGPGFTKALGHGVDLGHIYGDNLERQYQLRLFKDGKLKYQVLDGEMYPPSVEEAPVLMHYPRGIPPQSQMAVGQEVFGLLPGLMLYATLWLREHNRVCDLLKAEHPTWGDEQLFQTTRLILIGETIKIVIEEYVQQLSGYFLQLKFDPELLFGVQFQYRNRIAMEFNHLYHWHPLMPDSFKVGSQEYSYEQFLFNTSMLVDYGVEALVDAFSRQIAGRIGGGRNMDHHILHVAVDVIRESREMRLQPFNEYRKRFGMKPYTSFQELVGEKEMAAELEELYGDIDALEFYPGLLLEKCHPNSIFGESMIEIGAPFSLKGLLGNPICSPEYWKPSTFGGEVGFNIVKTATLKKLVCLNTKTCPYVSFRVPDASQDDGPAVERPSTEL

IC50 (MCF7) | IC50 (HeLa) | IC50 [2] | IC50 [3] | SMILES | IC50 [1] | CC50 at 24 h [4]
8.29 µM | 30.1 µM | 99.9 µM | 3.28 µM | Cc1ccccc1C1C2CCc3ccccc3C2=NN1c1ccc(S(N)(=O)=O)cc1 (configuration not stated) | 2.93 µM | 70.8 µM
29.4 µM | 18 µM | 91.5 µM | 2.48 µM | Cc1cccc(C2C3CCc4ccccc4C3=NN2c2ccc(S(N)(=O)=O)cc2)c1 (configuration not stated) | 9.06 µM | 67.2 µM
4.24 µM | 9.86 µM | 88.4 µM | 2.16 µM | Cc1ccc(C2C3CCc4ccccc4C3=NN2c2ccc(S(N)(=O)=O)cc2)cc1 (configuration not stated) | 17.1 µM | 63.6 µM
59.1 µM | 14.4 µM | 96.2 µM | 2.63 µM | COc1ccccc1C1C2CCc3ccccc3C2=NN1c1ccc(S(N)(=O)=O)cc1 (configuration not stated) | 11.8 µM | 67.2 µM
10.4 µM | 19.1 µM | 85.5 µM | 1.12 µM | COc1cccc(C2C3CCc4ccccc4C3=NN2c2ccc(S(N)(=O)=O)cc2)c1 (configuration not stated) | 1.78 µM | 68.2 µM
53.5 µM | 11.7 µM | 100 µM | 3.48 µM | NS(=O)(=O)c1ccc(N2N=C3c4ccccc4CCC3C2c2cccc(Br)c2)cc1 (configuration not stated) | 28 µM | 52.6 µM
11 µM | 4.82 µM | 86.2 µM | 1.76 µM | NS(=O)(=O)c1ccc(N2N=C3c4ccccc4CCC3C2c2cccc(O)c2)cc1 (configuration not stated) | 33.3 µM | 69.2 µM
24.4 µM | 5.28 µM | 99.8 µM | 3.66 µM | NS(=O)(=O)c1ccc(N2N=C3c4ccccc4CCC3C2c2c(F)cccc2Cl)cc1 (configuration not stated) | 37.4 µM | 68.3 µM
41.2 µM | 36.7 µM | 59.4 µM | 0.46 µM | Cc1ccccc1C1C2COc3ccccc3C2=NN1c1ccc(S(N)(=O)=O)cc1 (configuration not stated) | 22.2 µM | 64.8 µM
42.9 µM | 13.9 µM | 68.5 µM | 0.33 µM | COc1ccccc1C1C2COc3ccccc3C2=NN1c1ccc(S(N)(=O)=O)cc1 (configuration not stated) | 10.2 µM | 83.2 µM
20.2 µM | 7.29 µM | 78.1 µM | 1.02 µM | COc1ccc(C2C3COc4ccccc4C3=NN2c2ccc(S(N)(=O)=O)cc2)cc1 (configuration not stated) | 15.8 µM | 69.5 µM
23.9 µM | 13.2 µM | 86.8 µM | 2.28 µM | NS(=O)(=O)c1ccc(N2N=C3c4ccccc4OCC3C2c2ccccc2Cl)cc1 (configuration not stated) | 12.1 µM | 75 µM
27.8 µM | 2.94 µM | 90.2 µM | 1.26 µM | NS(=O)(=O)c1ccc(N2N=C3c4ccccc4OCC3C2c2ccccc2Br)cc1 (configuration not stated) | 12 µM | 81.6 µM
46.8 µM | 17.5 µM | 96.3 µM | 2.74 µM | NS(=O)(=O)c1ccc(N2N=C3c4ccccc4OCC3C2c2ccc(Cl)cc2Cl)cc1 (configuration not stated) | 4.76 µM | 57.1 µM
5.94 µM | 7.35 µM | – | – | Cc1ccc(-c2cc(C(F)(F)F)nn2-c2ccc(S(N)(=O)=O)cc2)cc1 [CELECOXIB] | 4.56 µM | 72.4 µM
– | – | – | – | COc1cc2ncnc(Nc3ccc(F)c(Cl)c3)c2cc1OCCCN1CCOCC1 [GEFITINIB] | – | 52 µM

SMILES | IC50 (MCF7) | IC50 (HeLa) | IC50 [2] | IC50 [3] | IC50 [1] | CC50 at 24 h [4]
NS(=O)(=O)c1ccc(N2N=C3c4ccccc4CCC3C2c2ccccc2)cc1 (configuration not stated) | 5.34 µM | 25.5 µM | > 100 µM | 8.34 µM | 5.01 µM | 66.9 µM
NS(=O)(=O)c1ccc(N2N=C3c4ccccc4CCC3C2c2ccccc2F)cc1 (configuration not stated) | 13.2 µM | 37.2 µM | > 100 µM | 11.9 µM | 3.18 µM | 57.9 µM
NS(=O)(=O)c1ccc(N2N=C3c4ccccc4CCC3C2c2cccc(F)c2)cc1 (configuration not stated) | 59.1 µM | 5.06 µM | > 100 µM | 4.83 µM | 11.2 µM | 57.9 µM
NS(=O)(=O)c1ccc(N2N=C3c4ccccc4CCC3C2c2ccc(F)cc2)cc1 (configuration not stated) | 6.89 µM | 22.4 µM | > 100 µM | 15.3 µM | 3.06 µM | 59.8 µM
NS(=O)(=O)c1ccc(N2N=C3c4ccccc4CCC3C2c2ccccc2Cl)cc1 (configuration not stated) | 25.9 µM | 13.7 µM | > 100 µM | 4.92 µM | 20.1 µM | 65.3 µM
NS(=O)(=O)c1ccc(N2N=C3c4ccccc4CCC3C2c2ccccc2Br)cc1 (configuration not stated) | 5.83 µM | 7.21 µM | > 100 µM | 12.7 µM | 3.56 µM | 61.1 µM
NS(=O)(=O)c1ccc(N2N=C3c4ccccc4CCC3C2c2ccc(Br)cc2)cc1 (configuration not stated) | 36.5 µM | 6.31 µM | > 100 µM | 26.3 µM | 28.8 µM | 69.3 µM
NS(=O)(=O)c1ccc(N2N=C3c4ccccc4CCC3C2c2ccc(C(F)(F)F)cc2)cc1 (configuration not stated) | 33.9 µM | 11.2 µM | > 100 µM | 18.3 µM | 5.72 µM | 55.2 µM
NS(=O)(=O)c1ccc(N2N=C3c4ccccc4CCC3C2c2ccc(Cl)cc2Cl)cc1 (configuration not stated) | 13.7 µM | 3.57 µM | > 100 µM | 32.3 µM | 53.2 µM | 64 µM
NS(=O)(=O)c1ccc(N2N=C3c4ccccc4OCC3C2c2ccccc2F)cc1 (configuration not stated) | 30.5 µM | 9.87 µM | > 100 µM | 7.24 µM | 35.2 µM | 70.5 µM
NS(=O)(=O)c1ccc(N2N=C3c4ccccc4OCC3C2c2ccc(Cl)cc2)cc1 (configuration not stated) | 28 µM | 7.73 µM | > 100 µM | 8.24 µM | 3.76 µM | 61.4 µM
NS(=O)(=O)c1ccc(N2N=C3c4ccccc4OCC3C2c2ccc(Br)cc2)cc1 (configuration not stated) | 46 µM | 8.4 µM | > 100 µM | 6.88 µM | 7.3 µM | 63.2 µM
NS(=O)(=O)c1ccc(N2N=C3c4ccccc4OCC3C2c2c(F)cccc2Cl)cc1 (configuration not stated) | 40.5 µM | 7.76 µM | > 100 µM | 16.3 µM | 8.49 µM | 66.2 µM
